Values joined by “and” are separate entries in the source; they are usually repeats but may differ in a detail not shown here. Identical values can stand only once. Where a SMILES comes first, the peptide text is derived from it. [ ]: non-standard residue; d: D form. NMeF = CN[C@@H](Cc1ccccc1)C(=O)O; NMeL = CN[C@@H](CC(C)C)C(=O)O; dNMeL = CN[C@H](CC(C)C)C(=O)O; dNMeA = CN[C@H](C)C(=O)O
Tests used:
[1] = PAMPA, PAMPA_Papp_Avg (apparent permeability)
[2] = Pharmacokinetics of D10.1 after PO, SQ and IV dosing in mice
[3] = PO 12.2 mg/kg, individual mice, 12.2 mg/kg
[4] = female, Balb/C, mouse, plasma, po, 12.2 mg/kg
[5] = female, Balb/C, mouse, plasma, sc, 12.2 mg/kg

Q: With CC[C@H](C)[C@@H]1NC(=O)[C@@H](CC(C)C)NC(=O)[C@H](CC(C)C)N(C)C(=O)[C@H](Cc2ccccc2)NC(=O)CN(C)C(=O)[C@@H]2CCCN2C(=O)[C@H](C(C)C)NC(=O)[C@H](Cc2ccccc2)N(C)C(=O)[C@H]2CCCN2C(=O)[C@H](CC(C)C)NC1=O (single isomer, unassigned) [Design D10.1.p1, lILp*FVP*GF*L] as the molecule, how does the Papp [1] read?
A: Its Papp is 3.92 ×10⁻⁶ cm/s.

Q: Which Papp [1] does the source give for CC[C@@H](C)[C@H]1NC(=O)[C@H]2CCCN2C(=O)[C@@H](C)NC(=O)[C@@H](CC(C)C)N(C)C(=O)[C@H]([C@@H](C)CC)NC(=O)[C@@H](C(C)C)NC(=O)[C@@H](CC(C)C)N(C)C(=O)[C@@H]2CCCN2C(=O)[C@@H]2CCCN2C1=O [Design D9.26, piPP*lvI*la] (cyclo(I[dNMeL][dA][dP][dI]PP[dNMeL][dV])) here?
A: The Papp was 1.99 ×10⁻⁶ cm/s.

Q: Which Papp [1] does the source give for CC[C@H](C)[C@@H]1NC(=O)[C@H](Cc2ccccc2)N(C)C(=O)[C@H]2CCCN2C(=O)[C@@H](CC(C)C)N(C)C(=O)[C@@H](Cc2ccccc2)NC(=O)[C@H](C(C)C)NC(=O)[C@H](CC(C)C)NC(=O)[C@H]2CCCN2C(=O)[C@H](CC(C)C)NC(=O)[C@@H]2CCCN2C1=O [Design D10.50, LVf*lp*FIPLp] (cyclo(IPL[dP]LV[dF][dNMeL][dP][NMeF])) here?
A: The Papp was 0.628 ×10⁻⁶ cm/s.

Q: Which Papp [1] does the source give for CC(C)[C@@H]1C(=O)N[C@@H](Cc2ccccc2)C(=O)N2CCC[C@H]2C(=O)N(C)[C@H](Cc2ccccc2)C(=O)N[C@H](C)C(=O)N2CCC[C@H]2C(=O)N1C (single isomer, unassigned) [Design D6.8.p1, *faP*vFP] here?
A: Its Papp is 3.47 ×10⁻⁶ cm/s.

Q: Which Papp [1] does the source give for CC[C@H](C)[C@@H]1NC(=O)[C@H](C(C)C)NC(=O)[C@@H](CC(C)C)N(C)C(=O)[C@H](Cc2ccccc2)NC(=O)[C@@H](CC(C)C)N(C)C(=O)[C@@H](C)N(C)C(=O)[C@H]2CCCN2C(=O)[C@@H]2CCCN2C(=O)[C@H](CC(C)C)NC(=O)[C@@H](C)N(C)C(=O)[C@@H]2CCCN2C1=O [Design D11.20, P*aLPp*a*lF*lVI] (cyclo(F[dNMeL]VIP[dNMeA]LP[dP][dNMeA][dNMeL])) here?
A: The Papp was 1.1 ×10⁻⁶ cm/s.

Q: For CC(C)C[C@@H]1NC(=O)[C@@H](C)NC(=O)[C@H]2CCCN2C(=O)[C@@H]2CCCN2C(=O)[C@@H](C(C)C)NC(=O)[C@@H](CC(C)C)N(C)C(=O)[C@H]2CCCN2C(=O)[C@H]2CCCN2C(=O)[C@@H](C)N(C)C(=O)[C@H](CC(C)C)N(C)C(=O)[C@@H](Cc2ccccc2)NC1=O [Design D11.16, Lf*L*app*lvPpa] (cyclo(L[dF][NMeL][dNMeA][dP][dP][dNMeL][dV]P[dP][dA])), which Papp [1] is on record?
A: Its Papp is 0.993 ×10⁻⁶ cm/s.

Q: Which Papp [1] does the source give for CC[C@@H](C)[C@H]1NC(=O)[C@H](C)NC(=O)[C@@H](CC(C)C)N(C)C(=O)[C@H](CC(C)C)N(C)C(=O)[C@H](C(C)C)NC(=O)[C@@H]2CCCN2C(=O)[C@@H](CC(C)C)N(C)C(=O)[C@@H](C)N(C)C(=O)[C@@H](Cc2ccccc2)NC(=O)[C@@H]2CCCN2C(=O)[C@H]2CCCN2C1=O [Design D11.6, V*L*lAipPf*a*lP] (cyclo([dF][dNMeA][dNMeL]PV[NMeL][dNMeL]A[dI][dP]P)) here?
A: The Papp was 1.7 ×10⁻⁶ cm/s.

Q: Which Papp [1] does the source give for CC[C@H](C)[C@@H]1NC(=O)[C@@H](C)N(C)C(=O)[C@@H](C)N(C)C(=O)[C@@H]2CCCN2C(=O)[C@H](CC(C)C)NC(=O)[C@H](CC(C)C)NC(=O)[C@@H](CC(C)C)NC(=O)[C@@H]2CCCN2C(=O)[C@H]2CCCN2C1=O [Design D9.11, PlLLP*a*aIp] (cyclo([dL]LLP[dNMeA][dNMeA]I[dP]P)) here?
A: The Papp was 0.316 ×10⁻⁶ cm/s.

Q: With CC[C@H](C)[C@@H]1NC(=O)[C@H](Cc2ccccc2)NC(=O)[C@H]2CCCN2C(=O)[C@H]([C@@H](C)CC)NC(=O)[C@H](C(C)C)NC(=O)[C@@H](C)NC(=O)[C@H]2CCCN2C1=O (single isomer, unassigned) [Design D7.8.p2, VIpFIpa] as the molecule, how does the Papp [1] read?
A: Its Papp is 4.92 ×10⁻⁶ cm/s.

Q: With CC(C)C[C@H]1NC(=O)[C@H](CC(C)C)N(C)C(=O)[C@@H](Cc2ccccc2)NC(=O)[C@@H](C)N(C)C(=O)[C@@H]2CCCN2C(=O)[C@H](C(C)C)NC(=O)[C@H](CC(C)C)N(C)C(=O)[C@@H](C)NC(=O)[C@@H]2CCCN2C(=O)[C@H]2CCCN2C1=O [Design D10.32, P*af*LlpPa*LV] (cyclo([dA][NMeL]VP[dNMeA][dF][NMeL][dL][dP]P)) as the molecule, how does the Papp [1] read?
A: Its Papp is 1.86 ×10⁻⁶ cm/s.

Q: What does the source list for CC[C@H](C)[C@@H]1NC(=O)[C@@H](CC(C)C)NC(=O)[C@H](CC(C)C)N(C)C(=O)[C@H](Cc2ccccc2)NC(=O)CN(C)C(=O)[C@@H]2CCCN2C(=O)[C@H](C(C)C)NC(=O)[C@H](Cc2ccccc2)N(C)C(=O)[C@H]2CCCN2C(=O)[C@H](CC(C)C)NC1=O [Design D10.1, lILp*FVP*GF*L]?
A: Half-life T1/2 ([2]; IV ([…] per Table 12), mean ±): 1.123 ± 0.113 h; Volume of distribution @ steady state VSS ([2]; IV ([…] per Table 12), mean ±): 0.25 ± 0.08 L/kg; Volume of distribution during elimination phase VZ ([2]; IV ([…] per Table 12), mean ±): 0.32 ± 0.07 L/kg; Plasma level ([2]; PO 12.2 mg/kg, 15 min, AVG): 2.58 µM; Plasma level ([2]; PO 12.2 mg/kg, 15 min, individual mice, 12.2 mg/kg): 2.22 µM and 3.26 µM and 2.26 µM; Plasma level ([2]; PO 12.2 mg/kg, 30 min, AVG): 2.92 µM; Plasma level ([2]; PO 12.2 mg/kg, 30 min, individual mice, 12.2 mg/kg): 2.49 µM and 3.64 µM and 2.64 µM; Plasma level ([2]; PO 12.2 mg/kg, 60 min, AVG): 1.78 µM; Plasma level ([2]; PO 12.2 mg/kg, 60 min, individual mice, 12.2 mg/kg): 1.57 µM and 2.14 µM and 1.64 µM; Plasma level ([2]; PO 12.2 mg/kg, 120 min, AVG): 0.72 µM; Plasma level ([2]; PO 12.2 mg/kg, 120 min, individual mice, 12.2 mg/kg): 0.54 µM and 0.8 µM and 0.81 µM; Plasma level ([2]; PO 12.2 mg/kg, 240 min, AVG): 0.16 µM; Plasma level ([2]; PO 12.2 mg/kg, 240 min, individual mice, 12.2 mg/kg): 0.13 µM and 0.18 µM and 0.17 µM; Plasma level ([2]; PO 12.2 mg/kg, 360 min, AVG): 0.07 µM; Plasma level ([2]; PO 12.2 mg/kg, 360 min, individual mice, 12.2 mg/kg): 0 μM and 0.1 μM (2×); Plasma level ([2]; PO 12.2 mg/kg, 1440 min, AVG): 0 µM; Plasma level ([2]; PO 12.2 mg/kg, 1440 min, individual mice): 0 µM; AUC0-t ([2]; PO 12.2 mg/kg, AVG): 270.4 µmol·min/L; AUC0-∞ ([2]; PO 12.2 mg/kg, AVG): 279.94 µmol·min/L; CI/F ([2]; PO 12.2 mg/kg, AVG): 0.000785 L/min; Cmax ([2]; PO 12.2 mg/kg, AVG): 2920 nM; Tmax ([2]; PO 12.2 mg/kg, individual mice): 0.5 h; AUC0-t [2, 3]: 216.96 µmol·min/L and 327.78 µmol·min/L and 266.45 µmol·min/L; AUC0-∞ [2, 3]: 226.62 µmol·min/L and 337.03 µmol·min/L and 276.18 µmol·min/L; CI/F [2, 3]: 0.000944 L/min and 0.000635 L/min and 0.000775 L/min; Cmax [2, 3]: 2490 nM and 3640 nM and 2640 nM; T1/2 [2, 3]: 0.8313 h and 1.051 h and 1.132 h; Apparent clearance CI/F ([2]; PO (12.2 mg/kg per Table 10), mean): 0.000785 L/min; Half-life T1/2 ([2]; PO (12.2 mg/kg per Table 10), mean ±): 1.005 ± 0.156 h; Oral bioavailability F ([2]; PO, IV dosing as reference, mean ±): 7.48 ± 1.79%; Plasma level ([2]; SQ 12.2 mg/kg, 15 min, AVG): 2.53 µM; Plasma level ([2]; SQ 12.2 mg/kg, 15 min, individual mice): 1.39 µM and 2.44 µM and 3.75 µM; Plasma level ([2]; SQ 12.2 mg/kg, 30 min, AVG): 3.55 µM; Plasma level ([2]; SQ 12.2 mg/kg, 30 min, individual mice): 1.81 µM and 3.69 µM and 5.15 µM; Plasma level ([2]; SQ 12.2 mg/kg, 60 min, AVG): 3.93 µM; Plasma level ([2]; SQ 12.2 mg/kg, 60 min, individual mice): 1.87 µM and 4.88 µM and 5.03 µM; Plasma level ([2]; SQ 12.2 mg/kg, 360 min, AVG): 2.29 µM; Plasma level ([2]; SQ 12.2 mg/kg, 360 min, individual mice): 2.4 µM and 2.19 µM; Plasma level ([2]; SQ 12.2 mg/kg, 1440 min, AVG): 0.01 µM; Plasma level ([2]; SQ 12.2 mg/kg, 1440 min, individual mice): 0 μM (2×) and 0.03 μM; AUC0-t ([2]; SQ 12.2 mg/kg, AVG): 1879.54 µmol·min/L; AUC0-∞ ([2]; SQ 12.2 mg/kg, AVG): 2867.17 µmol·min/L; CI/F ([2]; SQ 12.2 mg/kg, AVG): 7.96e-05 L/min; Cmax ([2]; SQ 12.2 mg/kg, AVG): 4140 nM; T1/2 ([2]; SQ 12.2 mg/kg, AVG): 3.7563 h; Tmax ([2]; SQ 12.2 mg/kg, AVG): 2.5 h; AUC0-t ([2]; SQ 12.2 mg/kg, individual mice): 730.93 µmol·min/L and 3578.6 µmol·min/L and 1329.09 µmol·min/L; AUC0-∞ ([2]; SQ 12.2 mg/kg, individual mice): 3585.94 µmol·min/L and 2148.41 µmol·min/L; CI/F ([2]; SQ 12.2 mg/kg, individual mice): 5.97e-05 L/min and 9.96e-05 L/min; Cmax ([2]; SQ 12.2 mg/kg, individual mice): 2400 nM and 4880 nM and 5150 nM; T1/2 ([2]; SQ 12.2 mg/kg, individual mice): 3.1823 h and 4.3302 h; level at time molar at 0.25 h [2, 4]: 2580 ± 590 nM; level at time molar at 0.5 h [2, 4]: 2920 ± 630 nM; level at time molar at 1 h [2, 4]: 1780 ± 310 nM; level at time molar at 2 h [2, 4]: 720 ± 150 nM; level at time molar at 4 h [2, 4]: 160 ± 30 nM; level at time molar at 6 h [2, 4]: 70 ± 60 nM; CL/F [2, 5]: 0.0796 mL/min; level at time molar at 0.25 h [2, 5]: 2530 ± 1180 nM; level at time molar at 0.5 h [2, 5]: 3550 ± 1670 nM; level at time molar at 1 h [2, 5]: 3930 ± 1780 nM; level at time molar at 6 h [2, 5]: 2290 ± 150 nM; level at time molar at 24 h [2, 5]: 10 ± 20 nM; bioavailability ([2]; mouse, in vivo): 7.5 to 11%; Cmax ([2]; mouse, in vivo, sc, 12.2 mg/kg): 4140 ± 1510 nM; Tmax ([2]; mouse, in vivo, sc, 12.2 mg/kg): 2.5 h; half-life ([2]; mouse, in vivo, sc, 12.2 mg/kg): 3.76 ± 0.812 h

From patent US20260274895A1, “DE NOVO DESIGNED MEMBRANE-TRAVERSING AND ORALLY BIOAVAILABLE MACROCYCLES” (UNIVERSITY OF WASHINGTON, priority 2022, published 2026)
